{
  "source": "patent US20090286770A1",
  "about": "“Use of Staurosporine Derivatives for the Treatment of Multiple Myeloma” (priority 2004, published 2009)",
  "test_system": "cell lines harbouring ras or FGFR3 activating mutations especially multiple myeloma cell lines",
  "assay": "potency toward cell lines harbouring ras or FGFR3 activating mutations",
  "assay_type": "cell-based",
  "settings": "especially multiple myeloma cell lines harbouring the ras or FGFR3",
  "data": [
    {"molecule": "CO[C@@H]1[C@H](N(C)C(=O)c2ccccc2)C[C@H]2O[C@]1(C)n1c3ccccc3c3c4c(c5c6ccccc6n2c5c31)C(=O)NC4", "note": "[MIDOSTAURIN, N-[(9S,10R,11R,13R)-2,3,10,11,12,13-hexahydro-10-methoxy-9-methyl-1-oxo-9,13-epoxy-1H,9H-diindolo[1,2,3-gh:3′,2′,1′-lm]pyrrolo[3,4-j][1,7]benzodiazonin-11-yl]-N-methylbenzamide]", "values": [
      {"measurement": "potency toward cell lines harbouring ras or FGFR3 activating mutations", "result": "unexpected high potency"}
    ]}
  ]
}
